Our source for the IC50 and Kd values is EP4342530A1, “SORTILIN MODULATORS” (Insusense ApS, priority 2022, dated 2024).

What is called IC50 is the point on the concentration scale where inhibition reaches its midpoint. As usually defined, the Kd is the equilibrium constant for the complex coming apart.

One experiment addresses T1, h-Sortilin (Homo sapiens, UniProt Q99523).
T1 sequence (Q99523 78-831): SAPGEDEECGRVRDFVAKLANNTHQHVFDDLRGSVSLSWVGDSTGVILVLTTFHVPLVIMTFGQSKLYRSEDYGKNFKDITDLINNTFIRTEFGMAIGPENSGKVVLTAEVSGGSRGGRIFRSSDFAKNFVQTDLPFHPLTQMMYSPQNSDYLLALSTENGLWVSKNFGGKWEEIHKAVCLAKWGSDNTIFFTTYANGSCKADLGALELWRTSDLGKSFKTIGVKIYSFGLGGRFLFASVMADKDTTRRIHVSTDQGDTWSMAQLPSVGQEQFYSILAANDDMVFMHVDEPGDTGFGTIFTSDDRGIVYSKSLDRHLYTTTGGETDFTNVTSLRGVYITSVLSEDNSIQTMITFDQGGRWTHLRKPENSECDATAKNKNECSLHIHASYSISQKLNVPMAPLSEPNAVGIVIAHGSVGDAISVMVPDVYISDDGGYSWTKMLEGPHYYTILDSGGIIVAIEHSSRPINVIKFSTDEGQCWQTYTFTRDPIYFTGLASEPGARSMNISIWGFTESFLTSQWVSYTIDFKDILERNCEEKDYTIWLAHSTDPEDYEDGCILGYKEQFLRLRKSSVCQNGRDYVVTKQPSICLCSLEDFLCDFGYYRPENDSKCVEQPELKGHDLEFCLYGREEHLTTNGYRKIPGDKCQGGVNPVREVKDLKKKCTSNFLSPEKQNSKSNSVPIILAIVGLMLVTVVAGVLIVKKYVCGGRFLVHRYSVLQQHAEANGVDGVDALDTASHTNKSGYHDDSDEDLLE
Description: Neurotensin scintillation proximity assay (displacement of [3H]-neurotensin binding). The conditions noted are these: 150 nM 6his-Sortilin, 5 nM [3H]-Neurotensin; average of at least 2 determinations; read-out: IC50 [3H]Neurotensin SPA. Here is the method: The exemplified compounds of the invention were tested in a Neurotensin (NTS) scintillation proximity assay (SPA). NTS, which is a 13 amino acid neuropeptide, is a sortilin ligand. The IC50 is a measure of the amount of the compound required to inhibit the binding of NTS to sortilin by 50%. The skilled person will recognise that the lower the IC50 value, the less of the compound needed to achieve the desired effect, and as a result, the chances of undesirable off-target effects are reduced.
Compound affinity was determined by measuring the displacement of [3H]-neurotensin binding to h-Sortilin in SPA format. Total volume of 40 µl in 50 mM HEPES pH 7.4 assay buffer containing 100 mM NaCl, 2.0 mM CaCl2, 0.1% BSA and 0.1% Tween-20. Compound pre-incubation for 30 minutes at room temperature with 150 nM of 6his-Sortilin before 5 nM [3H]-Neurotensin and Ni chelate imaging beads (Perkin Elmer) were added, after 6 hours the plate was read on a ViewLux with 360 s exposure time. Dose-response evaluation of compounds was performed with 8 concentrations of drugs (covering 3 decades). IC50 values were calculated by nonlinear regression using the sigmoid concentration-response (variable slope) using CDD Vault software. All values reported are average of at least 2 determinations.
(SPA uses beads or plates that emit light when radiolabelled molecules are held near them.)

The target of experiment [1] is T2, Sortilin (Homo sapiens, UniProt Q99523).
T2 construct: purchased Bio-Techne Ltd 3154-ST-050
T2 sequence (Q99523 78-755 limits assumed): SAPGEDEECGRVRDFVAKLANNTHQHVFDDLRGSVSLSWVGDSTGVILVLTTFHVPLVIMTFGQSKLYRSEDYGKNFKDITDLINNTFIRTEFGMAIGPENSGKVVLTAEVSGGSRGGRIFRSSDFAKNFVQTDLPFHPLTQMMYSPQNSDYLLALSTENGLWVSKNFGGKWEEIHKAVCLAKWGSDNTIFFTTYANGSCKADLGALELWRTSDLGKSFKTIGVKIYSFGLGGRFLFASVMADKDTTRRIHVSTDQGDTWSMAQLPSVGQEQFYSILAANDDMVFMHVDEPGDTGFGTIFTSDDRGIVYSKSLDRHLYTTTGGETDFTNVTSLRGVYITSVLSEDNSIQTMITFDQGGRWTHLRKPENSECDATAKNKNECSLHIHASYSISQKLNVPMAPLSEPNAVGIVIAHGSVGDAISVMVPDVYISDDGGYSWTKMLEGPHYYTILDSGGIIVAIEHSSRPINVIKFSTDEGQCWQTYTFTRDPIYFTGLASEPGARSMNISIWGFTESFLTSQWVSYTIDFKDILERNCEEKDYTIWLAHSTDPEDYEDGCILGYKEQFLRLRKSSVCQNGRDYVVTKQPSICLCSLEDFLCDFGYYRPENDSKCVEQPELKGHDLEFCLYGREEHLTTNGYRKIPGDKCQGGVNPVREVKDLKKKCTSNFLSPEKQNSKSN
Nature of the experiment: Creoptix (GCI) binding kinetics, human Sortilin. As to conditions: Species Human, screened at 1 µM, 25 degrees Celsius. Here is the method:
(§1) Creoptix (GCI) method - using SEQ ID NO.4 (Murine sortillin)
(§2) A protein, bound to a surface, is bathed in a solution containing potential ligands giving rise to binding kinetics to generate Kon and Koff rates, as well as a Kd.
(§3) All buffers described were filtered using a 0.2µm filter (Product number: 10300461, Nalgene) and degassed for 15 minutes prior to use.
(§4) A flow cell temperature of 25 degrees Celsius was used throughout the experiment.
(§5) A 4PCH chip was conditioned across all flow cells using 0.2 X concentration running buffer (running buffer composition: 1XHBS-N, pH 7.4, 3.4 mM EDTA, 1% DMSO) using pre-set conditioning wizard (WAVE control software) injecting: 0.1 M borate, 1 M NaCl (pH 9) followed by three start-up injections of 0.2 X running buffer.
(§6) A buffer exchange was performed and 1x running buffer (1XHBS-N, pH 7.4, 3.4 mM EDTA, 1% DMSO) used during the immobilisation procedure: An initial injection of EDC/NHS (mixed in 1:1 ratio) was performed across all 4-flow cells to activate the surface for amine coupling of ligands.
(§7) Recombinant Sortilin aliquots were thawed quickly by hand and centrifuged at 13,300 rpm for 10 minutes. A 10 µg/ml protein solution was then made in pH 5.0 acetate and injected once for 20 minutes over flow-cells 2, 3 and 4 for human, human (flow cells 2 & 3), and mouse Sortilin respectively followed by a 60 second dissociation period.
(§8) A final 7-minute passivation injection of 50 mM tris was used across all flow cells.
(§9) A flow rate of 10 µl/min was used for all conditioning and immobilisation cycles.
(§10) Compounds were screened at 1 µM using the in-built 'intermediate binders' settings: 100 ul/min, 45 s baseline, 25 s association, 300 s dissociation, with blanks every 5th sample and a DMSO correction (1.5 % DMSO at the start and end of the experiment as well as every 20 cycles. An acquisition rate of 10 Hz was used throughout the experiment.
(§11) Compounds were screened at a final assay concentration of 1 µM and a final DMSO concentration was 1 %. To achieve this, compounds were diluted in DMSO from 10 mM stocks to 100 µM (100 x final assay concentration) then diluted 1:100 in running buffer which contained no DMSO to establish a final assay concentration of compound of 1 µM and a final DMSO concentration of 1 % [DMSO].
(§12) Compounds and DMSO were mixed by plate shaking at 1000 rpm for 60 seconds using a Bioshake instrument.
(§13) A flow rate of 100 µl/min was used throughout the experiment.
(§14) Data was evaluated using the RAPID kinetic analysis tool in the GCI WAVE_control software with data fitted using a standard 1:1 kinetic BioModel.

Experiment [2] deals with T3, Sortilin (Mus musculus, UniProt Q6PHU5).
T3 construct: purchased Bio-Techne Ltd 2934-ST-050
T3 sequence (Q6PHU5 76-753 limits assumed): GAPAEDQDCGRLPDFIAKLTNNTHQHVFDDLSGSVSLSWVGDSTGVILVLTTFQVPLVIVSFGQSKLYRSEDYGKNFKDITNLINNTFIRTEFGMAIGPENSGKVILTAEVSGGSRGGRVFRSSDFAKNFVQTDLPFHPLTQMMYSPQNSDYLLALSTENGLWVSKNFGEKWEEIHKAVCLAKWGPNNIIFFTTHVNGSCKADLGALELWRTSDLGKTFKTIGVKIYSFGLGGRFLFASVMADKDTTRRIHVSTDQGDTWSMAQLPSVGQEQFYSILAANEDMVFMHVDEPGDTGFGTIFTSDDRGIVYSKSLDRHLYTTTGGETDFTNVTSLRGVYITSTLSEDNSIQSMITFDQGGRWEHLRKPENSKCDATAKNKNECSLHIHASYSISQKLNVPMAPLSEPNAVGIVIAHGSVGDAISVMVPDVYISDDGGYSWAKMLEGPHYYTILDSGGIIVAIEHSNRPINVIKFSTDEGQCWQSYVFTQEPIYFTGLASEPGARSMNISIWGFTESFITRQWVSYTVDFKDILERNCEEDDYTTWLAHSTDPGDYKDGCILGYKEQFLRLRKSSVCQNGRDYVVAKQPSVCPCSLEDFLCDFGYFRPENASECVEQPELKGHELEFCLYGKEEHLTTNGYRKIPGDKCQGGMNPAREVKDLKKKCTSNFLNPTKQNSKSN
Nature of the experiment: Creoptix (GCI) binding kinetics, mouse Sortilin. As to conditions: Species Mouse; Form of Compound Free acid; screened at 1 µM, 25 degrees Celsius. Here is the method: as §1, §2, §3, §4, §5, §6, §7, §8, §9, §10, §11, §12, §13, §14

Regarding `CN1CCc2cc(CN[C@@H](CCC(C)(C)C)C(=O)O)ccc2C1` [Example 10, (S)-5,5-dimethyl-2-(((2-methyl-1,2,3,4-tetrahydroisoquinolin-6-yl)methyl)amino)hexanoic acid], on h-Sortilin, the half-maximal inhibitory concentration (IC50) came out at 640 nM. Also, the figures for the Kd at Sortilin [1] (Form of Compound Free acid) and on Sortilin [2] were 200 nM and 241 nM, respectively.
In the same order, the values of `CC(C)(C)CC[C@H](NCc1ccc2c(c1)CCCN2)C(=O)O` [Example 16, (2S)-5,5-dimethyl-2-{[(1,2,3,4-tetrahydroquinolin-6-yl)methyl]amino}hexanoic acid] are 570 nM, 255 nM and 299 nM.
In the same order, the values of `CC(C)(C)CC[C@H](NCc1ccc2c(c1)CNCC2)C(=O)O` [Example 18, (2S)-5,5-dimethyl-2-{[(1,2,3,4-tetrahydroisoquinolin-7-yl)methyl]amino}hexanoic acid] are 500 nM, 1420 nM and 2280 nM.
Consider `CN1CCOc2cc(CN[C@@H](CCC(C)(C)C)C(=O)O)ccc21` [Example 19, (S)-5,5-dimethyl-2-(((4-methyl-3,4-dihydro-2H-benzo[b][1,4]oxazin-7-yl)methyl)amino)hexanoic acid], for which the IC50 at h-Sortilin stood at 660 nM. Besides, the Kd came out at 3720 nM on Sortilin [1] (Form of Compound Free acid) and 3180 nM at Sortilin [2].
On to `CN1CCOc2ccc(CN[C@@H](CCC(C)(C)C)C(=O)O)cc21` [Example 30, (2S)-5,5-dimethyl-2-{[(4-methyl-3,4-dihydro-2H-1,4-benzoxazin-6-yl)methyl]amino}hexanoic acid], for which the IC50 on h-Sortilin amounted to 350 nM. Moreover, the Kd at Sortilin [1] (Form of Compound Free acid) worked out at 5070 nM; at Sortilin [2] it was 7600 nM.
For the molecule `CC(C)(C)CC[C@H](N[C@@H](c1ccc2c(c1)OCCC2)C(F)F)C(=O)O` [Example 46], the IC50 at h-Sortilin came to 130 nM. Besides, on Sortilin [1] (Form of Compound Free acid), the Kd came out at 43.4 nM.
In the same order, the values of `CC(C)(C)CC[C@H](N[C@@H](c1ccc2c(c1)CCCC2)C(F)(F)F)C(=O)O` [Example 47] are 160 nM and 75.3 nM.
On to `CC(C)(C)CC[C@H](N[C@@H](c1ccc2c(c1)CCC2)C(F)(F)F)C(=O)O` [Example 49], for which the IC50 on h-Sortilin is 220 nM. This molecule also displayed a Kd at Sortilin [1] (Form of Compound Free acid) of 504 nM.
In the same order, the values of `C[C@@H](N[C@@H](CCC(C)(C)C)C(=O)O)c1ccc2c(c1)OCCO2` [Example 51] are 280 nM and 181 nM.
As for `C[C@@H](N[C@@H](CCC(C)(C)C)C(=O)O)c1ccc2c(c1)OCO2` [Example 54], the IC50 at h-Sortilin is 380 nM. The same molecule came in with a Kd on Sortilin [1] (Form of Compound Free acid) of 105 nM.
Take `CC(C)(C)CC[C@H](N[C@H](c1ccc2c(c1)OCCC2)C(F)F)C(=O)O` [Example 56]: the IC50 on h-Sortilin was 310 nM. The molecule further gave a Kd at Sortilin [1] (Form of Compound Free acid) of 696 nM.
`C[C@@H](N[C@@H](CCC(C)(C)C)C(=O)O)c1ccc2c(c1)NCCC2` [Example 58]: at h-Sortilin, the IC50 turned out to be 310 nM. Moreover, the dissociation constant (Kd) at Sortilin [1] (Form of Compound Free acid) stood at 67 nM; at Sortilin [2] it was 70.3 nM.
For the molecule `C[C@H](N[C@@H](CCC(C)(C)C)C(=O)O)c1ccc2c(c1)OCCO2` [Example 61], on h-Sortilin, the IC50 is 350 nM. Also, the affinity on Sortilin [1] (Form of Compound Free acid), expressed as Kd, was 144 nM.
Regarding `CC(C)(C)CC[C@H](NCc1ccc2c(c1)OCO2)C(=O)O` [Example 68], on h-Sortilin, the IC50 is 860 nM. This molecule came in with a Kd at Sortilin [1] (Form of Compound Free acid) of 163 nM.
For `CC(C)(C)CC[C@H](N[C@H](c1ccc2c(c1)CCCC2)C(F)F)C(=O)O` [Example 71], the IC50 at h-Sortilin amounted to 590 nM. The same molecule showed a Kd at Sortilin [1] (Form of Compound Free acid) of 193 nM.
For the molecule `CC(C)(C)CC[C@H](NCc1cccc2c1CCCO2)C(=O)O` [Example 72], the IC50 at h-Sortilin is 1080 nM. The molecule also displayed a dissociation constant (Kd) at Sortilin [1] (Form of Compound Free acid) of 613 nM.
For the molecule `CC(C)(C)CC[C@H](NCc1ccnc(Oc2ccccc2)c1)C(=O)O` [Example 76], the IC50 at h-Sortilin came to 230 nM. For the same molecule, binding at Sortilin [1] (Form of Compound Free acid) was put at a Kd of 58.3 nM.
In the case of “(2S)-5,5-dimethyl-2-{[(5,6,7,8-tetrahydronaphthalen-2-yl)methyl]amino}hexanoic acid [Example 4]”, on h-Sortilin, the IC50 was 120 nM. The results for the Kd at Sortilin [1] (Form of Compound Free acid), on Sortilin [1] (Form of Compound HCl salt) and at Sortilin [1] (Form of Compound Mesylate salt) were 40.9 nM, 51.7 nM and 42.5 nM, respectively.
